In article PMC11513923, “Discovery of ZLC491 as a Potent, Selective, and Orally Bioavailable CDK12/13 PROTAC Degrader” (Journal of Medicinal Chemistry, 2024):

Tests used:
[1] = test system: MDA-MB-231 xenograft tumors; assay: Histology of tumors (H&E staining, TUNEL IHC) in MDA-MB-231 xenograft model; format: in vivo, mouse; conditions: 100 and 200 mg/kg orally, 5 days; particularly at 200 mg/kg
Experimental: We further performed pharmacodynamic studies of ZLC491 in an MDA-MB-231 xenografted mouse model. ZLC491 was orally administrated at two doses of 100 and 200 mg/kg, respectively, for 5 consecutive days (Figure 7A). Tumor tissues were harvested on day 5 and subjected to Western blot analysis. […] Additionally, we conducted further histological analysis on the tumors following ZLC491 treatment.
Figure 7 ZLC491 depleted CDK12 and CDK13 proteins in vivo. (A) Study design of pharmacodynamics assessment on target engagement of ZLC491 in the MDA-MB-231 xenograft model; (B) immunoblotting of CDK12, CDK13, and α-tubulin in tissue lysate of MDA-MB-231 xenografts model after ZLC491 treatment; (C) protein levels were quantified using ImageJ and normalized to corresponding α-tubulin, then plotted using GraphPad Prism 8.0; (D) immunohistochemistry (IHC) analysis on the tumors by H&E staining and TUNEL assays; (E) TUNEL histology scores were analyzed and plotted by GraphPad Prism 8.0; (F) body weight change during the treatment.
H&E staining of formalin-fixed paraffin embedded (FFPE) tissue sections was performed using Leica Autostainer XL as per manufacturer’s protocol. […] Cells which were intensely stained for DAB pigment were considered to be apoptotic and they were quantified as numbers per 10 high power field (hpf, 400× magnification).

[2] = target: CDK12 (Homo sapiens, UniProt Q9NYV4); assay: TMT-labeled quantitative proteomics in MDA-MB-231 cells; format: cell-based; set-up: endogenous in cells; host or cells: MDA-MB-231; conditions: 8 h
Sequence of CDK12 (Q9NYV4 whole entry): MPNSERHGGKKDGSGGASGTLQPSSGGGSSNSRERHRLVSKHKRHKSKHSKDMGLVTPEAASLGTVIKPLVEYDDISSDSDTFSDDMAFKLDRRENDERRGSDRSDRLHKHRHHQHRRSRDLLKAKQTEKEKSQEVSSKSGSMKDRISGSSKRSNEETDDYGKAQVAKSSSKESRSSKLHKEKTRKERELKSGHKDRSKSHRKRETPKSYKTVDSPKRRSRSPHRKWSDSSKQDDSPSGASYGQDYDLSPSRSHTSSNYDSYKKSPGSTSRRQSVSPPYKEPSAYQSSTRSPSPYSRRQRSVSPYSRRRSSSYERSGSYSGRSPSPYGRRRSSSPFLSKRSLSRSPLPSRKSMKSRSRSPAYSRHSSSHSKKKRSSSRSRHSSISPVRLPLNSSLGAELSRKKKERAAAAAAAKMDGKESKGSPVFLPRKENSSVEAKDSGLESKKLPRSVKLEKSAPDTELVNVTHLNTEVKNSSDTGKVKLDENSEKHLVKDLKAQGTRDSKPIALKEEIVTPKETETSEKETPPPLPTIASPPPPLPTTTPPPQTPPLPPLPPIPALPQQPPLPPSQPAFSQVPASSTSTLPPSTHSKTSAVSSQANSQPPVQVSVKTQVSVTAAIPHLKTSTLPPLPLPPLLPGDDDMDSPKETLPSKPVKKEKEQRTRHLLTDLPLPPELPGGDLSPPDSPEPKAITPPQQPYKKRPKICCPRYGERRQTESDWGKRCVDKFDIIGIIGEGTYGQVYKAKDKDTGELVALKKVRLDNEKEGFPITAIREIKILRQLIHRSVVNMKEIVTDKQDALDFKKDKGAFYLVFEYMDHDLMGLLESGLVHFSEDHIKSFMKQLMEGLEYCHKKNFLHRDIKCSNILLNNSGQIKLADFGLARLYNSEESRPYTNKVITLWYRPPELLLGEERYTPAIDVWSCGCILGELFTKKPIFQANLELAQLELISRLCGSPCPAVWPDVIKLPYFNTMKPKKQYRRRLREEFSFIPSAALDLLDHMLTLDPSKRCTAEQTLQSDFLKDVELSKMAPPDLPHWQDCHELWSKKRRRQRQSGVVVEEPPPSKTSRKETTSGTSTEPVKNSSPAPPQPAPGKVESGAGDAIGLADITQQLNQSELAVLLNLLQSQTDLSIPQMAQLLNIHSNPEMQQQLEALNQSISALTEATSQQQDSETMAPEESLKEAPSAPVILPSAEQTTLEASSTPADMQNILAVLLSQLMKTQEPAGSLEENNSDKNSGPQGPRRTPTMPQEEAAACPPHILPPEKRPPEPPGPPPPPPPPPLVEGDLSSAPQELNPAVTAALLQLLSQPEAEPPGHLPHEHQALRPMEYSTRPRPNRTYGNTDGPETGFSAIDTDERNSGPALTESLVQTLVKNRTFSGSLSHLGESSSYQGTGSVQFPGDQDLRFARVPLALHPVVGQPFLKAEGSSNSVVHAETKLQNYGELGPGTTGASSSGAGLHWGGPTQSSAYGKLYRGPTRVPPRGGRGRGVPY
Sequence of CDK12 (O75909 whole entry partner): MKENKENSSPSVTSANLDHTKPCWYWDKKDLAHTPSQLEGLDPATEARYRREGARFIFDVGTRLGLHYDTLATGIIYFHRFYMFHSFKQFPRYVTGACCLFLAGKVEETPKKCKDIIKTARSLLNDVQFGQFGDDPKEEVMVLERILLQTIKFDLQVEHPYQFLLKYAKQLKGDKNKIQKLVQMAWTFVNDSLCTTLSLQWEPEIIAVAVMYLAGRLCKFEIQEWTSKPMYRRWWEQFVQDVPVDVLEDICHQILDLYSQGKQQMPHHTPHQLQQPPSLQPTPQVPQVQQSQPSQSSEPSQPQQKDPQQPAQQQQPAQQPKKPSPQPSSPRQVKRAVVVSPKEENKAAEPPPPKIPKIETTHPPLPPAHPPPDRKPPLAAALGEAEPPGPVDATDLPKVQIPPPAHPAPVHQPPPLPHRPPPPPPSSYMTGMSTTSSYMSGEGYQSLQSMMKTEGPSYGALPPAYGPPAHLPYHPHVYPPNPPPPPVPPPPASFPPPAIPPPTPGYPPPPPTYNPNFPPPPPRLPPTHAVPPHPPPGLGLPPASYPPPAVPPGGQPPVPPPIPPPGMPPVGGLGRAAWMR
Experimental: The global proteomic selectivity of ZLC491 was investigated by using the tandem mass tag (TMT) labeled mass-spectrometry. […] CDK13 was not detected in either degrader treatment groups or DMSO control groups, likely due to its insufficient cellular expression for mass spectrometry detection.
Figure 5 ZLC491 degraded CDK12/13 with high selectivity. (A) Global proteomic analysis of ZLC491 in MDA-MB-231 cells after 8 h treatment of DMSO or 2 μM ZLC491; (B) mass-spec quantification of CDKs changes; (C) immunoblotting of target protein degradation in samples for proteomic analysis.
MDA-MB-231 cells were seeded at 8 × 10^5 cells in 6 cm dishes 24 h before treating with 2 μM ZLC491 or DMSO in quadruplicate or triplicate for 8 h. Cell lysates were prepared by washing cells twice with cold PBS and adding 180 μL lysis buffer (10 mM HEPES, pH 7.0, 1% (w/v) SDS, 2 mM MgCl·6H2O supplemented with 0.1% BeyoZonase (Beyotime)) per dish. Samples were quantified using a micro-BCA protein assay kit (Thermo Fisher Scientific) and 600 μg of each sample was processed and digested using the filter aided sample preparation (FASP) method followed by alkylation with iodoacetamide and digestion with trypsin. The samples were then desalted using Oasis HLB C18 SPE cartridge column (Waters, WAT094225). The peptides were lyophilized and reconstituted, then 25 μg peptides of each sample were labeled with TMT 11-plex Isobaric Label Reagent Set (Thermo Fisher Scientific) as the manufacturer’s instructions. After labeling, the peptides from the 11 samples were pooled together. […]
The fractions were analyzed sequentially on an Orbitrap Fusion Lumos Mass Spectrometer (Thermo Scientific) coupled to a NanoLC-1200 UHPLC system (Thermo Scientific) with C18 capillary column. […] MS3 precursor were fragmented by HCD and analyzed with Orbitrap at NCE 65, AGC 1E5, resolution 60000.
The raw MS data files for all 11 fractions were searched against the Uniprot-Human-Canonical database by Proteome Discoverer 2.0 for protein identification and TMT reporter ion quantitation. […]

N#Cc1ccc(N[C@H]2CC[C@H](N(C(=O)NCc3ccccc3)c3ccc(N4CCN(C5CCN(c6cc7c(cc6F)C(=O)N(C6CCC(=O)NC6=O)C7=O)CC5)CC4)cc3)CC2)nc1 (stereo partly shown) [ZLC491, 3-Benzyl-1-((1r,4r)-4-((5-cyanopyridin-2-yl)amino)cyclohexyl)-1-(4-(4-(1-(2-(2,6-dioxopiperidin-3-yl)-6-fluoro-1,3-dioxoisoindolin-5-yl)piperidin-4-yl)piperazin-1-yl)phenyl)urea]
apoptosis in tumors (H&E staining, TUNEL IHC) [1]: marked apoptosis and increased TUNEL signaling
FC_4-91 (CDK12) ([2]; 2 μM ZLC491 vs DMSO): 0.249
CDK12 level in global proteomics ([2]; 2 μM): significantly decreased
selectivity among CDKs in global proteomics ([2]; 2 μM): selective for CDK12 over other CDKs
